Test results as given in US12404269B2, “Aminoquinazolinone and aminoisoquinolinone derivatives and application thereof” (ZHEJIANG UNIVERSITY, priority 2018, dated 2025).

What was measured:
[1] = molecular target: T1, PI3Kα (Homo sapiens, UniProt P42336); assay: PI3Kα molecular activity test (ADP-GLO); format: biochemical; conditions: for Selectivity (PI3Kδ IC50/PI3KαIC50): PI3Kδ IC50/PI3Kα IC50; for IC50: recombinant protein, 100 μM ATP, 2 hours at room temperature
T1 construct: purchased Carna Bioscience
Procedure: (§1) Instrument: ELISA Reader Envision™ (PerkinElmer, USA)
(§2) Materials: Human recombinant PI3K and PI3Kδ proteins, purchased from Carna Bioscience; ADP-GLO kit, purchased from Promega.
(§3) Take the PI3Kα Molecular Activity Test as an Example to Describe the Text Method of the PI3K Subtypes
(§4) PI3K-α recombinant protein and substrate ATP were diluted with kinase reaction buffer (50 mM Tris-HCl, pH 7.4, 2.1 mM DTT, 0.05% Tween-20, 10 mM MgCl2). […] The specific reaction system was 2% of DMSO, 0.8 ng/μL PI3K-α, and 100 μM ATP, the positive compound control groups and control wells were set, and there were 3 multiple-wells for each concentration of each sample. After incubating for 2 hours at room temperature, ADP-GLO Reagent and Kinase Detection Reagent were added respectively, and then Envision™ was used to detect the […] readings. The activity rate of the samples were calculated by the sample readings, and the calculation formula was: activity rate=(ODcompound−ODcontrol)/(ODDMSO−ODcontro) ×100%.

[2] = molecular target: T2, PI3Kδ (Homo sapiens, UniProt O00329); assay: PI3Kδ molecular activity test (ADP-GLO); format: biochemical; conditions: recombinant protein
T2 construct: purchased Carna Bioscience
Procedure: as §1, §2, §3, §4

[3] = system: ZR-75-1 (PTEN loss); assay: Tumor cell proliferation, CCK8 method, ZR-75-1; format: cell-based; conditions: Homo sapiens; CCK8, ZR-75-1
Procedure: (§5) The IC50 value was calculated using Graphpad Prism V5.0 software.

[4] = system: SW48 (PIK3CA mut); assay: Tumor cell proliferation, CCK8 method, SW48; format: cell-based; conditions: Homo sapiens; CCK8, SW48; read-out: SW48 (PIK3CA mut) proliferation IC50
Procedure: as §5

[5] = system: KPL4 (PIK3CA mut); assay: Tumor cell proliferation, CCK8 method, KPL4; format: cell-based; conditions: CCK8, KPL4; read-out: KPL4 (PIK3CA mut) proliferation IC50
Procedure: as §5

[6] = system: MCF7 (PIK3CA mut); assay: Tumor cell proliferation, CCK8 method, MCF7; format: cell-based, human; conditions: Homo sapiens; CCK8, MCF7; read-out: MCF7 (PIK3CA mut) proliferation IC50
Procedure: as §5

T2 sequence (O00329 whole entry): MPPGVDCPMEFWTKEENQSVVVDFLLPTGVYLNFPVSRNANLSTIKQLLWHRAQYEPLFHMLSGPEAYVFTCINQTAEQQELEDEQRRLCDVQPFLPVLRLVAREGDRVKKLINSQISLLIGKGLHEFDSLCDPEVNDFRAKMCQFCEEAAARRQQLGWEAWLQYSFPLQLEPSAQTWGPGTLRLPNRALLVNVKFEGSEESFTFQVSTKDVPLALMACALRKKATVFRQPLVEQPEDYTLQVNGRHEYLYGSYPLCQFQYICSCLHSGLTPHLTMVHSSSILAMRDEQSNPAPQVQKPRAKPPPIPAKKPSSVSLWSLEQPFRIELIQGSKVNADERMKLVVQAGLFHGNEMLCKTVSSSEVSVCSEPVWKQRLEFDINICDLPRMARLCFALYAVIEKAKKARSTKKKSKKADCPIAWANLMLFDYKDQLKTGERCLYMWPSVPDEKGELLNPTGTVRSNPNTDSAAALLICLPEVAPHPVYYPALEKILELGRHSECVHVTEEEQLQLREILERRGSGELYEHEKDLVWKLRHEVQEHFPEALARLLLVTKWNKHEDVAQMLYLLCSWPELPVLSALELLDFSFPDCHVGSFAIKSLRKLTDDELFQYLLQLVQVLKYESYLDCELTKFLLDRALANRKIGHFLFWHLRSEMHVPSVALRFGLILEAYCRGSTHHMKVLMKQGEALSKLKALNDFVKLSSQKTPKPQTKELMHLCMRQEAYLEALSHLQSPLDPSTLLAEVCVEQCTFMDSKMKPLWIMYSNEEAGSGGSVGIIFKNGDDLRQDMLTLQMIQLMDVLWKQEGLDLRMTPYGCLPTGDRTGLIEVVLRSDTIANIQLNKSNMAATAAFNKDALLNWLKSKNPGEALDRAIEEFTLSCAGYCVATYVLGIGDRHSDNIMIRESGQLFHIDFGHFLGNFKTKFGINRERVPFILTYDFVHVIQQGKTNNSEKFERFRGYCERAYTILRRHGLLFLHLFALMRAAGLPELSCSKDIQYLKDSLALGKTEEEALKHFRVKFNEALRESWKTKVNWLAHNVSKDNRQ
T2 sequence (P27986 whole entry partner): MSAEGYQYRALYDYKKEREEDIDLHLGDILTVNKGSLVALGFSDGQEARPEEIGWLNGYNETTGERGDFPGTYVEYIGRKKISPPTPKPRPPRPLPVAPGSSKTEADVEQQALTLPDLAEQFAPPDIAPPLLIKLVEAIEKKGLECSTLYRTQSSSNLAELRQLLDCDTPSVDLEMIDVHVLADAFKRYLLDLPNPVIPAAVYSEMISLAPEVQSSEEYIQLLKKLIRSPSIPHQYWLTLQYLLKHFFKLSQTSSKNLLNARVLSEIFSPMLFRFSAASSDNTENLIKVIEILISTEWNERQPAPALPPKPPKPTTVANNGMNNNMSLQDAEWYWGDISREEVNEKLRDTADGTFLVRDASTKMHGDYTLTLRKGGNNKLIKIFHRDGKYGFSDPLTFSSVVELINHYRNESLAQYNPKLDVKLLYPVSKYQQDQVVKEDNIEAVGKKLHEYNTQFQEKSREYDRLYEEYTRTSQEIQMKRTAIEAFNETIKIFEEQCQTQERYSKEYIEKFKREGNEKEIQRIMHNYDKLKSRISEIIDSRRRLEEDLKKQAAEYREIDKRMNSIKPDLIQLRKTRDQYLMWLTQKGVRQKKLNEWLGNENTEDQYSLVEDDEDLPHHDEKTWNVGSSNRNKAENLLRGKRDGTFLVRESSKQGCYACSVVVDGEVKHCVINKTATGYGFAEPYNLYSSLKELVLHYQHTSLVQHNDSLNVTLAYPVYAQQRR
T1 sequence (P42336 whole entry): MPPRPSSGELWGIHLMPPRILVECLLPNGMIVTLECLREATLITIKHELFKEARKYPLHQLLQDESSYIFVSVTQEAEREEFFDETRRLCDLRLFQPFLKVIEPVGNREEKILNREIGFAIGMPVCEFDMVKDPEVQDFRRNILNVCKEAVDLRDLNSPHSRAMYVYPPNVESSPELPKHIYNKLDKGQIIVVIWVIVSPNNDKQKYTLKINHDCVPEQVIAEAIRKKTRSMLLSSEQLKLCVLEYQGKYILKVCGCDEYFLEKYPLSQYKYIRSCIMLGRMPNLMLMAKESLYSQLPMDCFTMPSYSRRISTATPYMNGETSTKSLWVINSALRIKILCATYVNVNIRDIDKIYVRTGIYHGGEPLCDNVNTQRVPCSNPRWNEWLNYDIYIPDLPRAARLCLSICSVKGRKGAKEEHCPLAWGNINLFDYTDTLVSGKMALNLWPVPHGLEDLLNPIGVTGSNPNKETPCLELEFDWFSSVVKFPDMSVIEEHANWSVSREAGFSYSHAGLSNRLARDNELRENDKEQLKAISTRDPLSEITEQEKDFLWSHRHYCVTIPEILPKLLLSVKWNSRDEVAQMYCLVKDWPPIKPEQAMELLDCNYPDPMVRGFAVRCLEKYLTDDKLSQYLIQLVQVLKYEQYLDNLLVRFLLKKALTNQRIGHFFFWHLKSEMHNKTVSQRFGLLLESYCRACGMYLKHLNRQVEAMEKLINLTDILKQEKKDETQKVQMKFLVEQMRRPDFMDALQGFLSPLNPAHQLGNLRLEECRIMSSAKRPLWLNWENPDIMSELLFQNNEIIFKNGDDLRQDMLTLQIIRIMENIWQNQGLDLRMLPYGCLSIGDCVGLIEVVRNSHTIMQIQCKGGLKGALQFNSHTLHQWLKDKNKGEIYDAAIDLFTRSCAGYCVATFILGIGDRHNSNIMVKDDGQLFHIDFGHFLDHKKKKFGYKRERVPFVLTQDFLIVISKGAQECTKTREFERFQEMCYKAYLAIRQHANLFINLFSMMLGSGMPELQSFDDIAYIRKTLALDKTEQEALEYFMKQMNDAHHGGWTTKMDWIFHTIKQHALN
T1 sequence (P27986 whole entry partner): as the sequence (P27986 whole entry partner) above

| Structure (SMILES) | Selectivity (PI3Kδ IC50/PI3KαIC50) [1] | IC50 [1] [nM] | IC50 [2] [nM] | IC50 [3] [nM] | IC50 [4] [nM] | IC50 [5] [nM] | IC50 [6] [nM] |
| --- | --- | --- | --- | --- | --- | --- | --- |
| COc1c(O)ccc2c(=O)n(C)c(NC(=O)c3cnc(N)nc3)nc12 [7a, 2-Amino-N-(8-methoxy-3-methyl-7-hydroxy-4-oxo-3,4-dihydroquinazolinone-2-yl) pyrimidine-5-carboxamide] | III (“III” represents >10 times) | < 20 | 20 to 200 | – | – | – | – |
| CCn1c(NC(=O)c2cnc(N)nc2)nc2c(OC)c(O)ccc2c1=O [7b, 2-amino-N-(3-ethyl-7-hydroxy-8-methoxy-4-oxo-3 ,4-dihydroquinazolin-2-yl) pyrimidine-5-carboxamide] | II (“II” represents 5-10 times) | < 20 | 20 to 200 | 20 to 200 | < 20 | 20 to 200 | < 20 |
| COc1c(O)ccc2c(=O)n(CC(F)(F)F)c(NC(=O)c3cnc(N)nc3)nc12 [7e, 2-amino-N-(3-trifluoroethyl-7-hydroxy-8-methoxy-4-oxo-3,4-dihydroquinazolin-2-yl) pyrimidine-5-carboxamide] | I (“I” represents <5 times) | 20 to 200 | 20 to 200 | – | – | – | – |
| COc1c(O)ccc2c(=O)n(CC(F)F)c(NC(=O)c3cnc(N)nc3)nc12 [7f, 2-amino-N-(3-difluoroethyl-7-hydroxy-8-methoxy-4-oxo-3,4-dihydroquinazolin-2-yl) pyrimidine-5-carboxamide] | I (“I” represents <5 times) | 20 to 200 | 20 to 200 | – | – | – | – |
| COc1c(OCCC(N)=O)ccc2c(=O)n(C)c(NC(=O)c3cnc(N)nc3)nc12 [8a-3] | III (“III” represents >10 times) | < 20 | 20 to 200 | < 20 | < 20 | < 20 | < 20 |
| CNC(=O)COc1ccc2c(=O)n(C)c(NC(=O)c3cnc(N)nc3)nc2c1OC [8a-4] | II (“II” represents 5-10 times) | < 20 | 20 to 200 | – | – | – | – |
| COc1c(OCC(=O)N(C)C)ccc2c(=O)n(C)c(NC(=O)c3cnc(N)nc3)nc12 [8a-5] | II (“II” represents 5-10 times) | < 20 | 20 to 200 | – | – | – | – |
| COc1c(OCC(=O)N2CCOCC2)ccc2c(=O)n(C)c(NC(=O)c3cnc(N)nc3)nc12 [8a-8] | II (“II” represents 5-10 times) | < 20 | 20 to 200 | – | – | – | – |
| COc1c(OCCCC(N)=O)ccc2c(=O)n(C)c(NC(=O)c3cnc(N)nc3)nc12 [8a-9] | III (“III” represents >10 times) | < 20 | 20 to 200 | – | – | – | – |
| COc1c(OCCCN2CCOCC2)ccc2c(=O)n(C)c(NC(=O)c3cncnc3)nc12 [8a-14] | II (“II” represents 5-10 times) | < 20 | 20 to 200 | – | – | – | – |
| COc1c(OCCCN2CCOCC2)ccc2c(=O)n(C)c(NC(=O)c3ccnnc3)nc12 [8a-15] | II (“II” represents 5-10 times) | < 20 | 20 to 200 | – | – | – | – |
| COc1c(OCCCN2CCOCC2)ccc2c(=O)n(C)c(NC(=O)c3ccc(N)nc3)nc12 [8a-16] | II (“II” represents 5-10 times) | < 20 | 20 to 200 | – | – | – | – |
| CCOC(=O)COc1ccc2c(=O)n(C)c(NC(=O)c3cnc(N)nc3)nc2c1OC [8a-29] | III (“III” represents >10 times) | < 20 | 200 to 1000 | 200 to 1000 | 20 to 200 | 20 to 200 | < 20 |
| COc1c(OCCCN2CCOCC2)ccc2c(=O)n(C)c(NC(=O)c3cncnc3)cc12 [8a′-8] | III (“III” represents >10 times) | < 20 | 20 to 200 | – | – | – | – |
| COc1c(OCCCN2CCOCC2)ccc2c(=O)n(C)c(NC(=O)c3ccnnc3)cc12 [8a′-9] | III (“III” represents >10 times) | < 20 | 20 to 200 | – | – | – | – |
| CCn1c(NC(=O)c2cnc(N)nc2)nc2c(OC)c(OCCC(N)=O)ccc2c1=O [8b-3] | III (“III” represents >10 times) | < 20 | 20 to 200 | – | – | – | – |

| Structure (SMILES) | Selectivity (PI3Kδ IC50/PI3KαIC50) [1] | IC50 [1] [nM] | IC50 [2] [nM] | IC50 [3] [nM] | IC50 [4] [nM] | IC50 [5] [nM] | IC50 [6] [nM] |
| --- | --- | --- | --- | --- | --- | --- | --- |
| CCn1c(NC(=O)c2cncnc2)nc2c(OC)c(OCCCN3CCOCC3)ccc2c1=O [8b-14] | II (“II” represents 5-10 times) | 20 to 200 | < 20 | – | – | – | – |
| CCn1c(NC(=O)c2cnc(N)nc2)cc2c(OC)c(OCCC(N)=O)ccc2c1=O [8b′-3] | III (“III” represents >10 times) | < 20 | 20 to 200 | – | – | – | – |
| COc1c(OCC(N)=O)ccc2c(=O)n(C(C)C)c(NC(=O)c3cnc(N)nc3)nc12 [8c-2] | I (“I” represents <5 times) | 20 to 200 | 20 to 200 | – | – | – | – |
| COc1c(OCCC(N)=O)ccc2c(=O)n(C(C)C)c(NC(=O)c3cnc(N)nc3)nc12 [8c-3] | I (“I” represents <5 times) | 20 to 200 | 20 to 200 | – | – | – | – |
| COc1c(OCC(N)=O)ccc2c(=O)n(C3CC3)c(NC(=O)c3cnc(N)nc3)nc12 [8d-2] | I (“I” represents <5 times) | 20 to 200 | 20 to 200 | – | – | – | – |
| COc1c(OCCCN2CCOCC2)ccc2c(=O)n(CC(F)F)c(NC(=O)c3cnc(N)nc3)nc12 [8f-1] | – | – | – | 200 to 1000 | 20 to 200 | 20 to 200 | < 20 |
| CCn1c(NC(=O)c2cnc(N)nc2)nc2c(OC(F)F)c(OCCCN3CCOCC3)ccc2c1=O [8g-1] | – | – | – | 200 to 1000 | 20 to 200 | 20 to 200 | < 20 |
| Cn1c(NC(=O)c2cnc(N)nc2)cc2c3c(ccc2c1=O)OCCO3 [14a′-2] | II (“II” represents 5-10 times) | < 20 | 20 to 200 | – | – | – | – |
| Cn1c(NC(=O)c2cnc(N)nc2)cc2c3c(ccc2c1=O)OCCCCO3 [14a′-4] | II (“II” represents 5-10 times) | < 20 | 20 to 200 | – | – | – | – |
| Cn1c(NC(=O)c2cnc(N)nc2)cc2c3c(ccc2c1=O)OCCOCCO3 [14a′-5] | II (“II” represents 5-10 times) | < 20 | 20 to 200 | – | – | – | – |
| Cn1c(NC(=O)c2cnc(N)nc2)cc2c3c(ccc2c1=O)OCCOCCOCCO3 [14a′-6] | II (“II” represents 5-10 times) | < 20 | 20 to 200 | – | – | – | – |
| Cn1c(NC(=O)c2cnc(N)nc2)cc2c3c(ccc2c1=O)OCCOCCOCCOCCO3 [14a′-7] | II (“II” represents 5-10 times) | < 20 | 20 to 200 | – | – | – | – |
| CCn1c(NC(=O)c2cnc(N)nc2)cc2c3c(ccc2c1=O)OCCO3 [14b′-2] | I (“I” represents <5 times) | < 20 | < 20 | – | – | – | – |
| CCn1c(NC(=O)c2cnc(N)nc2)cc2c3c(ccc2c1=O)OCCCCO3 [14b′-4] | I (“I” represents <5 times) | 20 to 200 | 20 to 200 | – | – | – | – |
| Cc1nc(NC(=O)N2CCC[C@H]2C(N)=O)sc1-c1ccnc(C(C)(C)C(F)(F)F)c1 [Alpelisib, reference compound] | – | – | – | 20 to 200 | 20 to 200 | 20 to 200 | < 20 |
